How the values were obtained:
[1] = In vitro release assay: release of Compound A from SUV to acceptor multilamellar vesicles (MLVs); format: physicochemical
From the text: The aim of this experiment was to investigate the release rate of Compound A from small unilamellar vesicles (SUV; used here as a drug carrier system, see Example 3A) to large multilamellar vesicles (MLVs) consisting of egg phospholipids, and used as a lipophilic acceptor for drug released (see Shabbits J. A., Chiu G. N. and Mayer L. D. “Development of an in vitro drug release assay that accurately predicts in vivo drug retention for liposome-based delivery systems” Journal of Controlled Release 2002, 84(3), 161-170).
Multilamellar vesicles were prepared by using the Film-Hydration method. In short, egg phospholipids (Lipoid E 80 S) were weighed out and completely dissolved in organic solvent (EtOH/DCM at 4:1 v/v) to assure a homogenous mixture of all components.
Next, the organic solvent was removed using rotary evaporation (first step: 200 mbar, 50° C., 2 hours; second step: 30 mbar, 50° C., 45 minutes) to yield a homogenous lipid film. To assure complete removal of the organic solvent, the flask was flushed with nitrogen. Next, the film was rehydrated using phosphate buffered saline (PBS, pH 7.4) yielding MLVs and upon complete rehydration the MLVs were exposed to sonication for 15 minutes.
To have the MLVs resuspended in the same buffer system as the SUVs, the suspension was centrifuged for 10 minutes at 14,000 g, the supernatant (PBS) was removed, and replaced by sucrose histidine buffer. Lastly, the mixture was vortexed thoroughly to assure complete redispersion of the MLVs in the new medium before starting the release experiment.
SUVs (donor) were mixed with MLVs (acceptor) in a 25 ml Erlenmeyer flask with a stopper under stirring (500 rpm) at various ratios (1:40, 1:100, 1:200, 1:500; SUV:MLV v/v). 1 ml samples were taken at different time points and immediately centrifuged (14′000 rpm, 10 minutes) to separate the MLVs from SUVs for further processing. FIG. 3 herein is a schematic depicting the principle of the MLV-based release assay.
Next, the MLV portion was removed via suction and 50 μl of the SUV portion were mixed with 450 μl of ACN:H2O for HPLC sample preparation. The sample was then centrifuged (14′000 rpm, 10 minutes), the supernatant was filtered using a 0.22 μm filter and injected into the HPLC for analysis.
A high performance liquid chromatography (HPLC) system with UV detection including the following equipment settings and solvent systems were employed:
Compound A release was measured using MLVs as the acceptor compartment. Here, Compound A-loaded SUVs (7.5 mg/ml) were added to these MLVs at different ratios (v/v).
Note: For all MLV release experiments, the maximum concentration (maxC=100%) was obtained by diluting the 7.5 mg/ml loaded SUVs 1 to 40, 1 to 100, 1 to 200, or 1 to 500 (v/v) in Sucrose Histidine buffer instead of MLVs.

[2] = Aqueous solubility of Compound A; format: physicochemical; details: all pHs, including physiologically relevant pHs

Initial amount of Compound A still detectable in the SUV portion ([1]; SUV:MLV 1 to 40 (v/v), after 2 minutes, 7.5 mg/ml loaded SUVs): about 44% | Compound A released or transferred to the acceptor MLV ([1]; SUV:MLV 1 to 40 (v/v), t=2 minutes): ~60% | Compound A released to the acceptor MLV ([1]; SUV:MLV 1 to 100 (v/v), t=2 minutes): ~70% | Compound A released to the acceptor MLV ([1]; SUV:MLV 1 to 200 (v/v), t=2 minutes): ~80% | Compound A released to the acceptor MLV ([1]; SUV:MLV 1 to 500 (v/v), t=2 minutes): ~90% | Drug substance released (maximum over the ratios tested) ([1]; after only 2 minutes): up to 90%
Compound: COc1ccccc1-c1nccc(COc2ccccc2CC(Oc2ncnc3sc(-c4ccc(F)cc4)c(-c4ccc(OCCN5CCN(C)CC5)c(Cl)c4C)c23)C(=O)O)n1 [Compound A, (2R)-2-{[(5Sa)-5-{3-chloro-2-methyl-4-[2-(4-methylpiperazin-1-yl)ethoxy]phenyl}-6-(4-fluorophenyl)thieno[2,3-d]pyrimidin-4-yl]oxy}-3-(2-{[2-(2-methoxyphenyl)pyrimidin-4-yl]methoxy}phenyl)propanoic acid]
Aqueous solubility [2]: limited aqueous solubility across all pHs

— patent US10722466B2, “Liposomal formulation for use in the treatment of cancer” (LES LABORATOIRES SERVIER, priority 2016, dated 2020)
